Experimental findings from patent publication US4281009A, “Hydantoin derivatives” (Nippon Zoki Pharmaceutical Co., Ltd., priority 1978, dated 1981) are described below.

Assay [1] has as its system normal mice and SART stress mice. As to the kind of experiment: Analgesic effect, tail pressure method (Randall-Selitto's device). The assay is classed as in vivo, mice (ddY-strain male). As to conditions: for change in vivo at 100 mg/kg / change in vivo at 160 mg/kg: Mus musculus; for change in vivo at 160 mg/kg: peroral 160 mg/kg. An outline of the steps:
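Randall-Selitto tail pressure threshold measured 60 min after intraperitoneal dosing, expressed as post/pre-dose pressure ratio versus vehicle control (0.5% CMC-Na or 0.5% Tween 80, 10 ml/kg). For oral dosing, mean of readings at 30, 60, 90 and 120 min used.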

For a further assay, the system named is SART stress mice. As to the kind of experiment: Inhibitory effects on increase of heart rate and elongation of QRS-time in SART stress mice. The assay is classed as in vivo, mice (dd-strain male). Conditions: 9th day, Average ± S.D. An outline of the steps:
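Male dd-strain mice, 11 or 12 per group, in three groups under SART stress; heart rate and QRS-time measured on day 9 after test start.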

Assay [2] relates to dd-strain male mice. As to the kind of experiment: Inhibitory effect on exploratory movements. Conditions: after 60 minutes. The assay is classed as in vivo. As to the method: 4.2. Inhibitory effect on exploratory movements:
Groups each comprising 16-35 dd-strain male mice were used. The compounds of the present invention were given intraperitoneally. After 60 minutes, exploratory movements for 15 minutes were measured with an exploratory movement recorder by a method of Tokyo Kyoiku University.

For assay [3], the system named is dd-strain male mice. As to the kind of experiment: Inhibitory effect on Tremorine-induced tremor. The assay is classed as in vivo. As to conditions: 100 mg/kg intraperitoneal; tremorine 10 mg/Kg. As to the method:
9. Inhibitory effect on Tremorine-induced tremor:
Groups of mice each comprising 10-40 dd-strain male mice were used. Effect of the compounds of the present invention on tremor caused by tremorine was examined. The compounds of the present invention or DPH was given intraperitoneally. 45 minutes thereafter, 10 mg/Kg of tremorine was given intraperitoneally for inducing the tremor.

The mark [4] stands for this setting: ip, 1 h, SART stress mice, intraperitoneal 100 mg/kg, 60 minutes.
Where [5] appears, read: ip, 1 h, normal mice, intraperitoneal 100 mg/kg, 60 minutes.
Where [6] appears, read: po, SART stress mice, peroral 100 mg/kg, average of 30, 60, 90 and 120 minutes.
Setting [7] is: po, SART stress mice, average of 30, 60, 90 and 120 minutes.
The mark [8] stands for this setting: po, normal mice, peroral 100 mg/kg, average of 30, 60, 90 and 120 minutes.
The mark [9] stands for this setting: po, normal mice, average of 30, 60, 90 and 120 minutes.
The mark [10] stands for this setting: SART stress mice, intraperitoneal 50 mg/kg, 60 minutes.
Where [11] appears, read: normal mice, intraperitoneal 50 mg/kg, 60 minutes.
The mark [12] stands for this setting: SART stress mice, peroral 50 mg/kg, average of 30, 60, 90 and 120 minutes.
Setting [13] is: normal mice, peroral 50 mg/kg, average of 30, 60, 90 and 120 minutes.

As to `COc1ccc(C2(c3ccc(OC)c(Cl)c3)NC(=O)NC2=O)cc1` (stereo not drawn) [Compound 2, 5-(3-chloro-4-methoxyphenyl)-5-(4-methoxyphenyl)hydantoin], the change in vivo at 100 mg/kg was found to be 139% in assay [1] (setting [4]), 90.7% in assay [1] (setting [5]), 70% in assay [1] (setting [6]) and 37.3% in assay [1] (setting [8]). Besides, the change in vivo at 160 mg/kg was 88.2% in assay [1] (setting [7]) and 50.2% in assay [1] (setting [9]). Also, the Analgesic effect is given as 79.6% in assay [1] (setting [10]) and 54.6% in assay [1] (setting [11]). The compound further returned a Heart rate in the assay with SART stress mice (50 mg/kg/day) of 698 ± 42 min⁻¹. Also, in the assay with SART stress mice (50 mg/kg/day), the QRS-time is listed as 12.9 ± 0.8 1/1000 sec. Besides, the “Inhibitory effect on exploratory movements” value came to 29.0% with dd-strain male mice [2] (50 mg/kg intraperitoneal), 38.8% in the assay on dd-strain male mice [2] (100 mg/kg intraperitoneal) and 47.8% in the assay on dd-strain male mice [2] (125 mg/kg intraperitoneal). Besides, the “Inhibitory effect on Tremorine-induced tremor” value in the assay with dd-strain male mice [3] is listed as 38%.
As to `O=C1NC(=O)C(c2ccc(O)cc2)(c2ccc(O)cc2)N1` [Compound 4, 5,5-Bis(4-hydroxyphenyl)hydantoin], the change in vivo at 100 mg/kg in assay [1] (setting [4]) came out at 162%; in assay [1] (setting [5]), 41.6%; in assay [1] (setting [6]), 67.3%; in assay [1] (setting [8]) it was 52.3%. Further, the change in vivo at 160 mg/kg was determined as 90.5% in assay [1] (setting [7]) and 68.2% in assay [1] (setting [9]). Further, the Analgesic effect in assay [1] (setting [10]) is listed as 88.2%; in assay [1] (setting [12]), 56.8%; in assay [1] (setting [11]) it was 36.1%; in assay [1] (setting [13]), 38.8%. The compound also yielded a Heart rate in the assay with SART stress mice (37.5 mg/kg/day) of 683 ± 61 min⁻¹. The QRS-time with SART stress mice (37.5 mg/kg/day) is on record as 12.2 ± 0.8 1/1000 sec. For the same compound, the results for the “Inhibitory effect on exploratory movements” value in the assay with dd-strain male mice [2] (50 mg/kg intraperitoneal), with dd-strain male mice [2] (100 mg/kg intraperitoneal) and in the assay on dd-strain male mice [2] (125 mg/kg intraperitoneal) were 30.1%, 54.5% and 61.3%, respectively. The “Inhibitory effect on Tremorine-induced tremor” value in the assay on dd-strain male mice [3] stood at 54%.
Regarding `O=C1NC(=O)C(c2cc(O)c(O)c(O)c2)(c2cc(O)c(O)c(O)c2)N1` [Compound 36, 5,5-Bis(3,4,5-trihydroxyphenyl)hydantoin], the change in vivo at 100 mg/kg in assay [1] (setting [4]) came to 180%; in assay [1] (setting [5]) it was 67%; in assay [1] (setting [6]), 102%; in assay [1] (setting [8]), 49.9%. Also, the Analgesic effect in assay [1] (setting [10]) is given as 120.5%; in assay [1] (setting [12]) it was 63.3%; in assay [1] (setting [11]), 44.0%; in assay [1] (setting [13]), 40.3%. This compound also displayed a Heart rate with SART stress mice (100 mg/kg/day) of 737 ± 65 min⁻¹. In addition, the QRS-time with SART stress mice (100 mg/kg/day) is recorded as 13.8 ± 1.2 1/1000 sec. In addition, the “Inhibitory effect on exploratory movements” value in the assay on dd-strain male mice [2] (50 mg/kg intraperitoneal) came to 30.6%; with dd-strain male mice [2] (100 mg/kg intraperitoneal), 36.7%.
